# Read-outs that look alike come from different tables or passages of the source.
# Key:
# MEIS1 gene expression [1] = test: Inhibition of MEIS1 gene expression in human tumor cells (qRT-PCR), MOLM-13; assay type: cell-based; conditions: MOLM-13 (carrying MLL-AF9), 48 hours of incubation, relative MEIS1 gene expression vs GAPDH
# Description: (§1) Experimental Example 3: Evaluation of Inhibitory Activity of Compounds Against MEISI Gene Expression in Human Tumor Cells
# (§2) The effect of test samples on MEIS1 gene expression in vitro cultured human leukemia cells MV-4-11 (carrying MLL-AF4), MOLM-13 (carrying MLL-AF9), and OCI-AML3 (carrying NPM1c) was studied.
# (§3) • Human acute lymphoblastic leukemia cells MV-4-11, purchased from American Type Culture Collection, Catalog Number: CRL-9591; • Human acute myeloid leukemia cells MOLM-13, purchased from COBIOER BIOSCIENCES CO., LTD, Catalog Number: CBP60678; • Human acute myeloid leukemia cells OCI-AML3, purchased from COBIOER BIOSCIENCES CO., LTD, Catalog Number: CBP60817; • MEIS1 Primer/Probe, purchased from IDT, Catalog Number: 40831613; and • GAPDH Primer/Probe, purchased from IDT, Catalog Number: 22214836.
# (§4) MV-4-11 cells were cultured in an IMDM medium containing 10% fetal bovine serum, or MOLM-13 and OCI-AML3 cells were cultured in an RPMI-1640 medium containing 20% fetal bovine serum, each supplemented with 100 U·mL^-1 penicillin and 100 µg·mL^-1 streptomycin. These cells were cultured at 37°C with 5% CO2. The suspensions of individual cell lines were prepared in their respective media and seeded into 48-well plates at a density of 100,000 cells/well. On the day of the experiment, a compound stock solution was diluted in a 6-fold gradient using DMSO. Each gradient-diluted stock solution was then further diluted 250-fold with a complete medium to prepare a series of working solutions at different concentrations. Next, 250 µL of working solution (containing the complete medium with a 2-fold serial concentration of the test compound or a positive control compound, or containing a control complete medium) was added to each well. After 48 hours of incubation, cells from the 48-well plate were collected into 1 mL centrifuge tubes, centrifuged at 1000 rpm for 5 minutes, and the complete medium was removed. Cells were washed twice with 1 mL PBS and centrifuged to remove PBS. Total RNA was extracted using the RNeasy Mini Kit (250) (QIAGEN, 74106). The threshold cycle (Ct) value for gene expression was determined using the HiScript II U+ One Step qRT-PCR Probe Kit (Vazyme) (Vazyme, Q223-01), with 3 replicates per sample. The prepared reaction mixture was placed in an ABI 7500 real-time PCR instrument, and the reaction proceeded following the procedures below. [formula]
# (§5) Next, for the relative MEIS1 gene expression, the concentration (EC50) that inhibits 50% of relative MEIS1 gene expression was calculated using GraphPad Prism 8 software.
# MEIS1 gene expression [2] = test: Inhibition of MEIS1 gene expression in human tumor cells (qRT-PCR), MV-4-11; assay type: cell-based; conditions: MV4-11, MV-4-11 (carrying MLL-AF4), 48 hours of incubation, relative MEIS1 gene expression vs GAPDH, read-out: MV-4-11 MEISI EC50
# Description: as §1, §2, §3, §4, §5
# Menin-MLL = biological target: T1, Menin-MLL (Homo sapiens, UniProt O00255); test: Inhibitory activity against Menin-MLL binding (fluorescence polarization); conditions: 150 nM His-Menin, 15 nM FITC-MLL, 25°C for 60 min
# T1 construct: His-Menin (M1-L615 end); purchased BIORTUS BP9210
# T1 sequence (O00255 1-615 isoform O00255-1): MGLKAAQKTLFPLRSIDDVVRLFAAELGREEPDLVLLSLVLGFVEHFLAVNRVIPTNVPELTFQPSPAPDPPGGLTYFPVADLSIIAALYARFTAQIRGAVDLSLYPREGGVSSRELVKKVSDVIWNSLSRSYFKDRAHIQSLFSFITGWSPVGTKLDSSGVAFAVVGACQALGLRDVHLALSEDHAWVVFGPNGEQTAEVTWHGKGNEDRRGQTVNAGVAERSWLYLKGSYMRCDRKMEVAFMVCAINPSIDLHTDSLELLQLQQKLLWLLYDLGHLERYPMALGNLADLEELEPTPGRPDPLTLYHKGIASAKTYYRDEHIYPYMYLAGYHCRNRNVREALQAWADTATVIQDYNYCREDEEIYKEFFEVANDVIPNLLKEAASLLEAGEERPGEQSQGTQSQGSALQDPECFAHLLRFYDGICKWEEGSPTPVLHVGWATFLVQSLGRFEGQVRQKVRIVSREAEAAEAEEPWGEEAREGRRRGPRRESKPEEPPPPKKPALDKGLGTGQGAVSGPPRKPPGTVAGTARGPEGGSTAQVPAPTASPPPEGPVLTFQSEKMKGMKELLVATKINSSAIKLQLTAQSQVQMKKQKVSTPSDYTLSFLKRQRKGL
# Procedure, shortened: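 Fluorescence polarization competition: compound and 150 nM His-tagged menin (residues M1-L615) sit 15 min at 25 °C in pH 7.5 HEPES buffer with NaCl, DTT and BSA; 15 nM FITC-labelled MLL peptide then binds for 60 min. IC50 fitted sigmoidally from mP values, duplicate wells.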
# [3] = test system: MOLM-13 (carrying MLL-AF9); test: Inhibition of proliferation of human tumor cells (Alamar Blue, 7 days), MOLM-13; assay type: cell-based; conditions: Homo sapiens, 168 h, MOLM-13 cells (carrying MLL-AF9), method calls the value GI50
# Procedure, shortened: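 Alamar Blue fluorescence at Day 7, normalised between 0.1% DMSO wells on Day 7 (high) and Day 0 (low), gives GI50. Cells grew with compound at 37°C, 5% CO2; seeding 4,000 cells/well for MV-4-11 and MOLM-13, 3,000 for KG-1a.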
# [4] = fluorescence polarization, read-out: Menin-MLL IC50
Compound,EC50 (MEIS1 gene expression [1]),EC50 (MEIS1 gene expression [2]),IC50 (Menin-MLL; [4]),"IC50 (Menin-MLL; Menin-MLL IC50, fluorescence polarization)",IC50 [3]
CC(=O)N1CCN(CCC[C@H](C(C)C)N2CC(c3cc(-c4ccc(F)cc4C(=O)N4CCOC[C@H]4C)c4c(F)nc(C)n4c3)C2)C(C)(C)C1 [Example 336],9.3 nM,19 nM,9 nM,,
CC(=O)N1CCN(CCC[C@H](C(C)C)N2CC(c3cc(-c4ccc(F)cc4C(=O)N4CCOC[C@H]4C)c4c(F)nc(C)n4c3)C2)C[C@@H]1C [Example 331],20.3 nM,63 nM,14 nM,,
Cc1ncc2c(-c3ccc(F)cc3C(=O)N3CCOC[C@H]3C)cc(C3CN([C@H](CCCN4CCN(C5CC5)CC4)C(C)C)C3)cn12 [Example 325],4.2 nM,7.6 nM,,3.2 nM,
CCN(C(=O)c1cc(F)ccc1-c1cc(C2CN([C@H](CCCN3CCC[C@@H](O)C3)C(C)C)C2)cn2c(C)ncc12)C(C)C [Example 326],5.5 nM,4.6 nM,2 nM,,
CC(=O)N1CC2CC(C1)N2CCC[C@H](C(C)C)N1CC(c2cc(-c3ccc(F)cc3C(=O)N3CCOC[C@H]3C)c3c(F)nc(C)n3c2)C1 [Example 346],5 nM,10 nM,3.8 nM,,8.3 nM

# Continued, in another order:
EC50 (MEIS1 gene expression [1]),EC50 (MEIS1 gene expression [2]),IC50 (Menin-MLL; [4]),Compound,"IC50 (Menin-MLL; Menin-MLL IC50, fluorescence polarization)",IC50 [3]
1.8 nM,27 nM,9 nM,Cc1nc(F)c2c(-c3ccc(F)cc3C(=O)N3CCOC[C@H]3C)cc(C3CN([C@H](CCCN4CCN(C(=O)C(C)C)CC4)C(C)C)C3)cn12 [Example 338],,
6 nM,26 nM,10 nM,Cc1nc(F)c2c(-c3ccc(F)cc3C(=O)N3CCOC[C@H]3C)cc(C3CN([C@H](CCCN4CCN(C(=O)C5CC5)CC4)C(C)C)C3)cn12 [Example 341],,
